From patent US11547681B2, “N-acylethanolamide derivatives and uses thereof” (ELIEM THERAPEUTICS, INC., priority 2016, dated 2023)

Experiments:
[1] = system: patients with pain; details: meta-analysis of 12 PEA pain studies; placebo 21%; cited from earlier work
[2] = in vivo; details: male, Sprague-Dawley, rat, plasma, po, 10 mg/kg
Protocol: PEA was also dosed intravenously at 1 mg/kg. Blood samples were collected up to 8 hours post-dose, and PEA and PEA-prodrug plasma concentrations were determined with a qualified LC-MS/MS method. Pharmacokinetic analysis was conducted by a non-compartmental model using Phoenix WinNonlin v.6.4 software.
The IV dosing solution was prepared fresh on the day of dosing at 0.5 mg/mL in a vehicle comprised of 10% solutol HS15, 10% n-methylpyrrolidone (NMP), 10% polyethylene glycol 400 (PEG400), and 70% water. For PO dosing, torpac capsules were loaded with an appropriate amount of PEA, PEA-prodrug, or normast powder. […] The prodrug dose in group 5 was the maximum amount of powder that would fit into a single capsule.
The pharmacokinetics of PEA and the PEA-prodrug were evaluated in fasted male Sprague-Dawley rats. Rats were housed one per cage. Each rat was fitted with a jugular vein cannula (JVC) for blood collection. Rats intended for IV dosing were fitted with an additional JVC for dosing. Each study group was dosing in triplicate. Rats were fasted for a minimum of twelve hours prior to dosing. Food was returned at four hours post dosing. Animals had free access to water throughout the study.
Blood samples (˜300 μL) were collected from the rats via a JVC and placed into chilled polypropylene tubes containing sodium heparin as an anticoagulant, and 30 μL of 0.5 M citric acid. Samples were maintained chilled throughout processing. Blood samples were centrifuged at 4° C. and 3,000 g for 5 minutes. Plasma (˜150 μL) was then transferred to a chilled, labeled polypropylene tube containing 15 μL of 10% formic acid, placed on dry ice, and stored in a freezer maintained at −60° C. to −80° C.
Pharmacokinetic parameters were determined with Phoenix WinNonlin (v6.4) software using a non-compartmental model. Maximum plasma concentrations (C0) after IV dosing were estimated by extrapolation of the first two time points back to t=0. […] Area under the time concentration curve (AUC) was calculated using the linear trapezoidal rule with calculation to the last quantifiable data point, and with extrapolation to infinity if applicable. […] Mean residence time, MRT, was calculated by dividing the area under the moment curve (AUMC) by the AUC. Clearance (CL) was calculated from dose/AUC. Steady-state volume of distribution (Vss) was calculated from CL*MRT (mean residence time). Bioavailability was determined by dividing the individual PO dose normalized AUClast values by the average IV AUClast value. Any samples below the limit of quantitation were treated as zero for pharmacokinetic data analysis.
Measured concentrations of PEA in plasma samples were corrected by subtracting the concentration of PEA measured in the pre-dose samples. […] Any corrected values that were negative are reported as not determined (ND).

[3] = Pharmacokinetics of PEA after intravenous administration in male Sprague-Dawley rats; type: in vivo, Sprague-Dawley rat; details: for AUC(0-t): AUClast; for MRT last: MRTlast
Protocol: Rats were housed one per cage. […] Each study group was dosing in triplicate.
Samples were maintained chilled throughout processing.
Clearance (CL) was calculated from dose/AUC.

[4] = male, Sprague-Dawley, rat, in vivo, iv, 1 mg/kg, Mean
[5] = male, Sprague-Dawley, rat, in vivo, iv, 1 mg/kg, individual rats
[6] = male, Sprague-Dawley, rat, in vivo, iv, 1 mg/kg, Plasma concentration of PEA, Mean
[7] = male, Sprague-Dawley, rat, in vivo, iv, 1 mg/kg, Plasma concentration of PEA, individual rats

- Cmax [2]: 5.3 ng/mL
- Tmax [2]: 120 min
- concentration at 1 hr [2]: 2.34 ng/mL
- concentration at 2 hr [2]: 5.3 ng/mL
- C0, Mean ([3]; PEA IV 1 mg/kg, extrapolated to t = 0): 251 ng/mL
- Tmax ([3]; male, Sprague-Dawley, rat, in vivo, iv, 1 mg/kg): 0 h
- AUC(0-t) [3, 4]: 62.1 ng·h/mL
- AUC(0-t) [3, 5]: 53.3 ng·h/mL
- AUC(0-inf) [3, 4]: 68.4 ng·h/mL
- AUC(0-inf) [3, 5]: 57.6 ng·h/mL
- clearance ([3]; male, Sprague-Dawley, rat, in vivo, iv, 1 mg/kg, CL (average clearance rate), Mean): 252 mL/min/kg
- clearance ([3]; male, Sprague-Dawley, rat, in vivo, iv, 1 mg/kg, CL, individual rats): 290 mL/min/kg
- MRT last [3, 4]: 24.1 min
- MRT last [3, 5]: 23.9 min
- concentration at 0.083 hr [3, 6]: 144 ng/mL
- concentration at 0.25 hr [3, 6]: 48.2 ng/mL
- concentration at 0.5 hr [3, 6]: 31.2 ng/mL
- concentration at 1 hr [3, 6]: 11.2 ng/mL
- concentration at 2 hr [3, 6]: 6.91 ng/mL
- concentration at 0.083 hr [3, 7]: 122 ng/mL
- concentration at 0.25 hr [3, 7]: 47.2 ng/mL
- concentration at 0.5 hr [3, 7]: 27.5 ng/mL
- concentration at 2 hr [3, 7]: 5.2 ng/mL
- Vd ([3]; male, Sprague-Dawley, rat, in vivo, iv, 1 mg/kg, Vss (average volume of distribution), Mean): 9.12 ± 0.832 L/kg
- Vd ([3]; male, Sprague-Dawley, rat, in vivo, iv, 1 mg/kg, Vss, individual rats): 10 L/kg
- half-life ([3]; male, Sprague-Dawley, rat, in vivo, iv, 1 mg/kg, t1/2 (average half-life), Mean): 35.8 ± 9.9 min
- half-life ([3]; male, Sprague-Dawley, rat, in vivo, iv, 1 mg/kg, t1/2, individual rats): 33.8 min
SMILES: CCCCCCCCCCCCCCCC(=O)NCCO [PEA, palmitoylethanolamide]
- treated patients achieving VAS scores <=3 [1]: 67%
